Measurements: article PMC12239085, “Silver(I) Ions Bridging Oxadiazole-2-thione Derivatives with Mitochondriotropic Agents: A Promising Strategy for Potent Anticancer Chemotherapy” (Inorganic Chemistry, 2025)

Test system: calf thymus (CT)-DNA
Experiment: CT-DNA-EB fluorescence displacement
Assay type: binding
Details: for quenching of fluorescence intensity of EB-DNA at 588 nm: EB 2.3 μM, CT-DNA 26 μM, complex 0–600 μM; for apparent binding constant K app: EB displacement
Procedure: The DNA-complex binding properties can also be studied by fluorescent spectroscopy can also be studied by fluorescent spectroscopy. ,– EB emits intense fluorescence in the presence of DNA due to its strong intercalation between adjacent DNA base pairs. As EB binds to DNA […], its displacement by a compound could indicate either intercalative binding or minor groove interaction, among other possibilities. ,– The emission spectra of the CT-DNA-EB complex were recorded in both the absence and presence of compounds 1–5 (Figure S29). The fluorescence intensity at λmax ^em = 588 nm was quenched by 60.2 (1). 58.5 (2), 62.0 (3), 61.9 (4) and 61.6 (5) %, for 1–5 respectively, compared to the initial fluorescence intensity of the EB-DNA solution.
The fluorescence spectroscopy method using EB was employed to determine the relative DNA binding properties of complexes 1–5 into CT-DNA. The emission spectra at 588 nm of EB (2.3 μM) solutions which contain CT-DNA (26 μM) in the absence or presence of various concentrations of complexes 1–5 (0–600 μM) were recorded upon their excitation at 527 nm. ,− The apparent binding constant (K app) was calculated using the equation: KEB*[EB]=Kapp*[DNA binder] where [DNA binder] is the concentration of the complex at a 50% reduction of the fluorescence, K EB= 10^7 M^–1, and [EB] = 2.3 μM. ,−
The concentration of the drug required to achieve a 50% reduction in fluorescence is determined from the plot of I o/I versus the concentration of the complex [DNA binder], Io/I=1+KSV*[DNA binder] where I o and I represent the fluorescence intensities of CT-DNA in the absence and presence of complexes 1–5, respectively. K SV is the Stern–Volmer dynamic quenching constant and [DNA binder] is the total concentration of the quencher (complexes 1–5). ,−

SMILES | quenching of fluorescence intensity of EB-DNA at 588 nm [%] | apparent binding constant K app
c1ccc(-c2nnc([S][Ag]([PH](c3ccccc3)(c3ccccc3)c3ccccc3)([PH](c3ccccc3)(c3ccccc3)c3ccccc3)[PH](c3ccccc3)(c3ccccc3)c3ccccc3)o2)cc1 [compound 1] | 60.2 | 6.3 × 10^4 M^–1
Fc1ccccc1-c1nnc([S][Ag]([PH](c2ccccc2)(c2ccccc2)c2ccccc2)([PH](c2ccccc2)(c2ccccc2)c2ccccc2)[PH](c2ccccc2)(c2ccccc2)c2ccccc2)o1 [compound 2] | 58.5 | 6.7 × 10^4 M^–1
Fc1ccc(-c2nnc([S][Ag]([PH](c3ccccc3)(c3ccccc3)c3ccccc3)([PH](c3ccccc3)(c3ccccc3)c3ccccc3)[PH](c3ccccc3)(c3ccccc3)c3ccccc3)o2)cc1 [compound 3] | 62.0 | 7.0 × 10^4 M^–1
Clc1ccccc1-c1nnc([S][Ag]([PH](c2ccccc2)(c2ccccc2)c2ccccc2)([PH](c2ccccc2)(c2ccccc2)c2ccccc2)[PH](c2ccccc2)(c2ccccc2)c2ccccc2)o1 [compound 4] | 61.9 | 6.9 × 10^4 M^–1
Clc1cccc(-c2nnc([S][Ag]([PH](c3ccccc3)(c3ccccc3)c3ccccc3)([PH](c3ccccc3)(c3ccccc3)c3ccccc3)[PH](c3ccccc3)(c3ccccc3)c3ccccc3)o2)c1 [compound 5] | 61.6 | 6.5 × 10^4 M^–1
